Broadly, the IC50 is the concentration that gives 50% inhibition. What is called melting point is the temperature of the solid-liquid transition.

Consider three compounds from PMC10489817, “2-Alkyl-Substituted-4-Amino-Thieno[2,3-d]Pyrimidines: Anti-Proliferative Properties to In Vitro Breast Cancer Models” (Molecules, 2023).

Each structure is given as a SMILES string. Several values for one entry are separate records, joined by “and”; a condition that tells them apart may be missing. Identical values can stand only once. Like-named read-outs stand apart in the source and are kept apart here.

For one series, the system named is MCF-10A. Description: MTT anti-proliferative test, MCF-10A. As to conditions: Homo sapiens. In kind it is cell-based. From the text: The MCF-10A cell line (normal human mammary epithelial cells) served as a reference control.
All breast cell lines (MCF-10A, MCF-7, and MDA-MB-231) were purchased from the American Type Culture Collection—ATCC (Manassas, VA, USA). The MCF-7 and MDA-MB-231 were cultivated in Dulbecco’s modified Eagle’s medium (DMEM) and supplemented with 10% fetal bovine serum (FBS), 1% sodium pyruvate, and 1% MEM non-essential amino acids (NEAA) without antibiotics. The non-tumorigenic breast cell line (MCF-10A) was cultivated in DMEM medium (Sigma-Aldrich, St. Louis, MO, USA) and supplemented with 10% FBS, 1% sodium pyruvate, 1% non-essential amino acids (NEAA), 20 ng/mL human epithelia growth factor (hEGF), 10 μg/mL insulin, and 0.5 μg/mL hydrocortisone without antibiotics. All cell lines were maintained in a humidified atmosphere, with 5% CO2 at 37 °C.
Using the standard MTT-dye reduction assay described by Mosmann, the anti-proliferative activity was tested. The method is based on the metabolism of the tetrazolium salt MTT to insoluble formazan. The formazan absorption was registered using a microplate reader at λ = 540 nm. The measured absorption is an indicator of cell viability and metabolic activity. Anti-proliferative activities were expressed as IC50 values (concentrations required for 50% inhibition of cell growth), calculated using non-linear regression analysis (GraphPad Software, San Diego, CA, USA).
In general terms: Formazan colour is commonly taken as a measure of viable cells.

A further series concerns BALB 3T3 cells. Description: in vitro 3T3 NRU test, phototoxicity. In kind it is cell-based, mouse. As to conditions: for IC50: Mus musculus, light or radiation study; for PIF (photo-irritancy factor): PIF = CC50/PC50, <2 not phototoxic. As for the experimental part: Compounds 2–5 were studied for cytotoxicity/phototoxicity by an in vitro 3T3 NRU-test. The cell line BALB 3T3, clone A31 (mouse embryo fibroblasts), was incubated with the test compounds at a concentration from 15 to 4000 µg/mL for 24 h at 37 °C, 5% CO2, and 95% humidity. The cytotoxicity and phototoxicity were expressed in percentages relative to the negative control determined. […] Based on the dose–response curves, the CC50/PC50 values (50% cytotoxic/phototoxic concentration) were calculated by nonlinear regression analysis (Table 1). The CC50 values can be used to calculate the PIF (photo-irritancy factor) for each test compound according to the following formula: PIF = CC50/PC50.
BALB/3T3 cells were cultured in 75 cm^2 tissue culture flasks in DMEM, 10% FBS, 2 mM glutamine, and antibiotics (penicillin 100 U/mL and streptomycin-100 µg/mL) at 37 °C, 5% CO2, and 90% relative humidity. Cytotoxicity/phototoxicity was assessed by a validated BALB/3T3 clone A31 neutral red uptake assay (3T3 NRU test). Briefly, cells were plated in a 96-well microtiter plate at a density of 1 × 10^4 cells/100 µL/well and incubated for 24 h. A wide concentration range was applied for the test compounds. For the phototoxicity tests, 96-well plates were irradiated with a dose of 2.4 J/cm^2, and the cells were incubated for an additional 24 h. After treatment with neutral red medium, washing, and treatment with the ethanol/acetic acid solution, the absorption was measured on a TECAN microplate reader (TECAN, Grödig, Austria) at a wavelength of 540 nm. The light source which we used was a light-emitting diode (LED) matrix—an artificial solar light simulator Helios-iO, model LE-9ND55-H—5500K (SERIC Ltd., Tokyo, Japan).
Cytotoxicity/phototoxicity were expressed as CC50/PC50 values (concentrations required for 50% cytotoxicity/phototoxicity), calculated using non-linear regression analysis (GraphPad Software GraphPad Prism 9.5.1, San Diego, CA, USA). The CC50 values were used to calculate the PIF (photo-irritancy factor) for each test substance, according to the following formula:
PIF = Cytotoxicity (CC50)/Phototoxicity (PC50)

The test system of the next series is MDA-MB-231. Description: ζ-potential measurement, MDA-MB-231. In kind it is cell-based, human. The settings on record: PBS pH 7.4, 37 °C; more negative after treatment. As for the experimental part: First, the ζ-potential of each cell line was measured, and all obtained values were negative (Figure 6A). The Student t-test statistical analysis which was applied distinguished the ζ-potentials of the three studied cell lines with p < 0.05, and the values followed the order of MCF-7 > MDA-MB-231 > MCF-10A. […] represents the relative percentage change of the ζ-potential induced by the studied compounds for the different cell lines. Compound 2 was able to decrease the ζ-potential of the cells with the following ranking: MCF-7 (42%) > MCF-10A (24%) > MDA-MB-231 (16%). For compound 4, the ranking was as follows: MCF-10A (50%) > MDA-MB-231 (46%) > MCF-7 (3%). For compound 5, this was MCF-10A (36%) > MCF-7 (22%) > […].
The zeta (ζ ξ) potential is the electrostatic potential at the shear plane of a cell, and is related to both its surface charge and the local environment. The ζ-potential of the intact cells and the treated ones was recorded in a cell suspension (0.5 × 10^6 cells/mL) in PBS, using the electrophoretic light-scattering technique on a Zetasizer Nano ZS analyzer (Malvern Instruments, Great Britain). Laser Doppler electrophoresis and velocimetry of cells were used to determine the ζ-potential by measuring the speeds of the cells in PBS upon the application of an electric field. The ζ-potential was calculated based on the Helmholtz–Smoluchowski equation. The measurements were performed in a U-shaped cell with gold-plated electrodes at 37 °C.
Figure 6 ζ-potential of the investigated cell lines, MCF-10A, MCF-7, and MDA-MB-231 (A). Alterations in the ζ-potential after treatment with compounds 2 (pink), 4 (blue), and 5 (green) (B). All zeta potential values were measured in PBS buffer (137 mM NaCl, 2.7 mM KCl, 8 mM Na2HPO4, and 2 mM KH2PO4; pH 7.4) at 37 °C. Two independent experiments were carried out for each cell line, and each sample was measured 6 times. (*; ***) denote p < 0.05 and p < 0.001 as follows. […]

Where [1] appears, read: read-out: IC50 MCF-10A (converted).
The mark [2] stands for this setting: read-out: IC50 of Mean ± SD, Anti-Proliferative Activity MCF-10A.
Setting [3] is: BALB 3T3, irradiated 2.4 J/cm^2 (PC50), read-out: IC50 of Mean ± SD, Phototoxicity.
[4] abbreviates: BALB 3T3, irradiated, value in brackets, read-out: IC50, Phototoxicity (converted).

As to `CCOC(=O)Cc1nc(N)c2c(C)c(C(=O)OCC)sc2n1` [Compound 2, Ethyl 4-Amino-2-(2-Ethoxy-2-Oxoethyl)-5-Methylthieno[2,3-d]Pyrimidine-6-Carboxylate], the melting point fell in the range of 206 to 207 °C. For the same compound, the IC50 with MCF-10A (setting [1]) was 1700 µM. Moreover, the IC50 in the series with MCF-10A (setting [2]) turned out to be 503 ± 16.7 µg/mL. For the same compound, the IC50 with BALB 3T3 cells (setting [3]) stood at 1080 ± 117 µg/mL. Also, in the series with BALB 3T3 cells (setting [4]), the IC50 was 3300 µM. Further, the “Δζ/ζ relative change of ζ-potential, MDA-MB-231” value (shortened to “Δζ/ζ relative change”) in the series on MDA-MB-231 is 16.04% and 16%.
Compound `CCOC(=O)c1sc2nc(CC)nc(N)c2c1C` [Compound 4, Ethyl 4-Amino-2-Ethyl-5-Methylthieno[2,3-d]Pyrimidine-6-Carboxylate] returned a melting point of 173 to 175 °C. Also, the IC50 in the series on MCF-10A (setting [1]) is 1400 µM. The IC50 in the series on MCF-10A (setting [2]) is 367 ± 17.8 µg/mL. For the same compound, the IC50 in the series with BALB 3T3 cells (setting [3]) came to 2110 ± 122 µg/mL. In addition, the IC50 in the series with BALB 3T3 cells (setting [4]) was 8000 µM. In addition, the “PIF (photo-irritancy factor)” value in the series with BALB 3T3 cells was determined as 1.2. For the same compound, the “Δζ/ζ relative change” value in the series with MDA-MB-231 is 45.51% and 46%.
`CCOC(=O)c1sc2nc(C)nc(N)c2c1C` [Compound 5, Ethyl 4-Amino-2,5-Dimethyl-Thieno[2,3-d]Pyrimidine-6-Carboxylate] gave a melting point of 203 to 204 °C. For the same compound, the IC50 in the series on MCF-10A (setting [1]) is 2500 µM. For the same compound, the IC50 in the series on MCF-10A (setting [2]) amounted to 618 ± 29.7 µg/mL. Also, the IC50 in the series on BALB 3T3 cells (setting [3]) was 2350 ± 114 µg/mL. Also, the IC50 with BALB 3T3 cells (setting [4]) was 9400 µM. Moreover, in the series on BALB 3T3 cells, the “PIF (photo-irritancy factor)” value was found to be 1.2. Also, the “Δζ/ζ relative change” value with MDA-MB-231 was 23.31% and 23%.
